Results as given in the kinase profiling compilation of Christmann-Franck et al. (2016).

What was measured:
Assay in all cases: KINOMEscan competition binding
ACVR1 (human) = ACVR1 (human) (UniProt Q04771); conditions: compound 10.0 µM
ACVR2A (human) = ACVR2A (human) (UniProt P27037); conditions: compound 10.0 µM
AURKB (human) = AURKB (human) (UniProt Q96GD4); conditions: compound 10.0 µM
BMP2K (human) = BMP2K (human) (UniProt Q9NSY1); conditions: compound 10.0 µM
BMPR1B (human) = BMPR1B (human) (UniProt O00238); conditions: compound 10.0 µM
CDK7 (human) = CDK7 (human) (UniProt P50613); conditions: compound 10.0 µM
CIT (human) = CIT (human) (UniProt O14578); conditions: compound 10.0 µM
CLK4 (human) = CLK4 (human) (UniProt Q9HAZ1); conditions: compound 10.0 µM
CSNK2A1 (human) = CSNK2A1 (human) (UniProt P68400)
CSNK2A2 (human) = CSNK2A2 (human) (UniProt P19784)
DAPK1 (human) = DAPK1 (human) (UniProt P53355)
DCLK3 (human) = DCLK3 (human) (UniProt Q9C098); conditions: compound 10.0 µM
[1] = tested on: EIF2AK4 KD2 (human), Q9P2K8 [S808G]; conditions: compound 10.0 µM
FLT3 (human) = FLT3 (human) (UniProt P36888); conditions: compound 10.0 µM
GAK (human) = GAK (human) (UniProt O14976); conditions: compound 10.0 µM
KIT (human) = KIT (human) (UniProt P10721); conditions: compound 10.0 µM
[2] = tested on: KIT (human), P10721 [V559D/V654A]; conditions: compound 10.0 µM
[3] = tested on: KIT (human), P10721 [V559D]; conditions: compound 10.0 µM
MAP2K3 (human) = MAP2K3 (human) (UniProt P46734); conditions: compound 10.0 µM
MAP4K2 (human) = MAP4K2 (human) (UniProt Q12851); conditions: compound 10.0 µM
MAPK15 (human) = MAPK15 (human) (UniProt Q8TD08)
MAPK8 (human) = MAPK8 (human) (UniProt P45983); conditions: compound 10.0 µM
MELK (human) = MELK (human) (UniProt Q14680); conditions: compound 10.0 µM
MKNK1 (human) = MKNK1 (human) (UniProt Q9BUB5); conditions: compound 10.0 µM
MKNK2 (human) = MKNK2 (human) (UniProt Q9HBH9); conditions: compound 10.0 µM
MYLK3 (human) = MYLK3 (human) (UniProt Q32MK0); conditions: compound 10.0 µM
NEK2 (human) = NEK2 (human) (UniProt P51955); conditions: compound 10.0 µM
PHKG2 (human) = PHKG2 (human) (UniProt P15735); conditions: compound 10.0 µM
PIM1 (human) = PIM1 (human) (UniProt P11309)
PIM2 (human) = PIM2 (human) (UniProt Q9P1W9); conditions: compound 10.0 µM
RIOK2 (human) = RIOK2 (human) (UniProt Q9BVS4); conditions: compound 10.0 µM
RIOK3 (human) = RIOK3 (human) (UniProt O14730); conditions: compound 10.0 µM
RPS6KA4 KD2 (human) = RPS6KA4 KD2 (human) (UniProt O75676); conditions: compound 10.0 µM
SRPK2 (human) = SRPK2 (human) (UniProt P78362); conditions: compound 10.0 µM
SRPK3 (human) = SRPK3 (human) (UniProt Q9UPE1); conditions: compound 10.0 µM
STK11 (human) = STK11 (human) (UniProt Q15831); conditions: compound 10.0 µM
STK24 (human) = STK24 (human) (UniProt Q9Y6E0); conditions: compound 10.0 µM
TAOK3 (human) = TAOK3 (human) (UniProt Q9H2K8); conditions: compound 10.0 µM
TGFBR2 (human) = TGFBR2 (human) (UniProt P37173); conditions: compound 10.0 µM
TLK1 (human) = TLK1 (human) (UniProt Q9UKI8); conditions: compound 10.0 µM
TNIK (human) = TNIK (human) (UniProt Q9UKE5); conditions: compound 10.0 µM
TTK (human) = TTK (human) (UniProt P33981); conditions: compound 10.0 µM
Sequence of TTK (human) (P33981 whole entry, looked up): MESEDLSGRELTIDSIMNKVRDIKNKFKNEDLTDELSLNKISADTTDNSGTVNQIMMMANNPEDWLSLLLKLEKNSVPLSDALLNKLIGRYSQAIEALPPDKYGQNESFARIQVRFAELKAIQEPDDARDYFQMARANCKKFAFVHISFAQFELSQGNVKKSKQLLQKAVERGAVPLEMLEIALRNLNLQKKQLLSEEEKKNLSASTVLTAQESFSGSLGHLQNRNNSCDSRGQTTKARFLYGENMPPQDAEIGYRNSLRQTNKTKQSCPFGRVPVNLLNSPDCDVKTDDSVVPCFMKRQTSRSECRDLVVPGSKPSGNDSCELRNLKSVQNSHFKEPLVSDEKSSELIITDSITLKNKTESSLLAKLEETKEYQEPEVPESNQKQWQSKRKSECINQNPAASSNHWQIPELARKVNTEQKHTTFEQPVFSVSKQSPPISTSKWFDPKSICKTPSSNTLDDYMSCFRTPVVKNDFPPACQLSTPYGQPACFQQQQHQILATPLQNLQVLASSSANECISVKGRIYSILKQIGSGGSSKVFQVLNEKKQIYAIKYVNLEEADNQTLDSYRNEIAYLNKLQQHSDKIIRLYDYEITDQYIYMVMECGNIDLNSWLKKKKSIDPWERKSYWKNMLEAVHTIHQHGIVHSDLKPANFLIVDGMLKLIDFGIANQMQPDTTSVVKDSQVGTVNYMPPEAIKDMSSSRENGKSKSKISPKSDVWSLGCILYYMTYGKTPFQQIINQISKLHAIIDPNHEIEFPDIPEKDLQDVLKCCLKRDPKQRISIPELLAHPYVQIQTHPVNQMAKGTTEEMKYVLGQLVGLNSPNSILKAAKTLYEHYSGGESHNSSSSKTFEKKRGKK

Sequence of PIM1 (human) (P11309 whole entry, looked up): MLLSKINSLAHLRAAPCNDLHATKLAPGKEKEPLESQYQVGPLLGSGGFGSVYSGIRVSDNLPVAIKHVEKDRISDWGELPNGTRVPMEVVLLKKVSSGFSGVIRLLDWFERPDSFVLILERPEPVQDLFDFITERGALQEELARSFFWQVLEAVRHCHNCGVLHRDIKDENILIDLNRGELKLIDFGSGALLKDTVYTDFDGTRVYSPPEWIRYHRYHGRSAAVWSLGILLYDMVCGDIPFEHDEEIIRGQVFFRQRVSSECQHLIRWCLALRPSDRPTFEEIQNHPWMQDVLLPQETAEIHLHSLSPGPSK
Sequence of CSNK2A2 (human) (P19784 whole entry, looked up): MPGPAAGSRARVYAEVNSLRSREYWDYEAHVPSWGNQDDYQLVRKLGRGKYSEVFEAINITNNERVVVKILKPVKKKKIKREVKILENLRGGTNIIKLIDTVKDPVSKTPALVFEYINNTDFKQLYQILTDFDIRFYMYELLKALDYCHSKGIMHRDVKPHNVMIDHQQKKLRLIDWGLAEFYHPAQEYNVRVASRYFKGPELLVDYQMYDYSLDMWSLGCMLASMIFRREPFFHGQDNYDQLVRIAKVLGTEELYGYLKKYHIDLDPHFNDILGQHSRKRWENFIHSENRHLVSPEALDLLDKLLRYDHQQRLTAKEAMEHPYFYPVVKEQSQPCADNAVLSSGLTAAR
Sequence of DAPK1 (human) (P53355 whole entry, looked up): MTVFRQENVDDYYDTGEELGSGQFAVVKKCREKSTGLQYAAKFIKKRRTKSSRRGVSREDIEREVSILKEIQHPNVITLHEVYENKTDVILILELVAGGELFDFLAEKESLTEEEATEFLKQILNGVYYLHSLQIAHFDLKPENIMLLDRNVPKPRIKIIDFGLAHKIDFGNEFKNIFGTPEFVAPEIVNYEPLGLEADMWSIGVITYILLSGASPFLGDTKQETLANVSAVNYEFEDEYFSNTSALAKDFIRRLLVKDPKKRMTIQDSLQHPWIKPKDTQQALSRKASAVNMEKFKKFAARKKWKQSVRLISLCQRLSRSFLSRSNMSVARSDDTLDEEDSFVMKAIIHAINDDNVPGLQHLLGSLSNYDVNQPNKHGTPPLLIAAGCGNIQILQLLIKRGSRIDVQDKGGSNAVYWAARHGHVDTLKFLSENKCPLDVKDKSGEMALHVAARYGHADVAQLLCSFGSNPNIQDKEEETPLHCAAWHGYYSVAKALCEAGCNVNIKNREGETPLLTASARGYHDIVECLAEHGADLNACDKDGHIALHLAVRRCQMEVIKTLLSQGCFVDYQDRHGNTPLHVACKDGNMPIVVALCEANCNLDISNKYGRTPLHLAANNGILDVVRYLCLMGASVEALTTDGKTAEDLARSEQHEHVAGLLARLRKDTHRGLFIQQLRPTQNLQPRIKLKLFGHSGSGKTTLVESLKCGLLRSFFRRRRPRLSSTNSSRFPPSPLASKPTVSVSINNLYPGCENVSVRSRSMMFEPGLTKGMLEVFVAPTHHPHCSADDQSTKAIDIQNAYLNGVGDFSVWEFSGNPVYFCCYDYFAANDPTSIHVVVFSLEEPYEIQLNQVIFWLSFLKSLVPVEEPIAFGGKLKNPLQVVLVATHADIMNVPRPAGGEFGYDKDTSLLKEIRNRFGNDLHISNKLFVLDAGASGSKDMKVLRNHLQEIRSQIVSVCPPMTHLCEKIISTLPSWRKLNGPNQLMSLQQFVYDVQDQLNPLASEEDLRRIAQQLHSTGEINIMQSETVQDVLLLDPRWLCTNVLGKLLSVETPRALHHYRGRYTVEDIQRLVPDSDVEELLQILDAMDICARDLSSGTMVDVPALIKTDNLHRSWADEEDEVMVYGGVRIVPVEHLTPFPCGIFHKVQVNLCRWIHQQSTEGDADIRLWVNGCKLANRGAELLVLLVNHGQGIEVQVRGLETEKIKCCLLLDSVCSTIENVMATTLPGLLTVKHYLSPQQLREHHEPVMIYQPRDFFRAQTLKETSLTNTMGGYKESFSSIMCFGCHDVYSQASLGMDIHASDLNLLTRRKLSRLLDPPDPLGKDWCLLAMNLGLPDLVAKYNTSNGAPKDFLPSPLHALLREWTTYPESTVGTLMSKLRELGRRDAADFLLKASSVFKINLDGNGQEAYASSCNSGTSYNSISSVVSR
Sequence of MAPK15 (human) (Q8TD08 whole entry, looked up): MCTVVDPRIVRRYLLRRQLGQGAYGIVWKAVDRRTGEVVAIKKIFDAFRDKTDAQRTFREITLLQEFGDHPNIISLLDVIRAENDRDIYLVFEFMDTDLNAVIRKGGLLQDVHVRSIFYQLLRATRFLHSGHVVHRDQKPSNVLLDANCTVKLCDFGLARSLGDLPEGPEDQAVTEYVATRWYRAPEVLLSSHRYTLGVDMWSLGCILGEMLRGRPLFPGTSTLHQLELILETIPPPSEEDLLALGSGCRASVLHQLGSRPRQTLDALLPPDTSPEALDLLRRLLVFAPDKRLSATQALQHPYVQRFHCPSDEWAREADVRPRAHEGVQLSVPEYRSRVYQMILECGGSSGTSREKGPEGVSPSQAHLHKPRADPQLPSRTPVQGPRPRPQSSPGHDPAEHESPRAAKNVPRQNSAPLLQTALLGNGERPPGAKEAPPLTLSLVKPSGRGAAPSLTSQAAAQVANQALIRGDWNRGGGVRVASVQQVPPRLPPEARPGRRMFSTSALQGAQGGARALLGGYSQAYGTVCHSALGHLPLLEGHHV
Sequence of CSNK2A1 (human) (P68400 whole entry, looked up): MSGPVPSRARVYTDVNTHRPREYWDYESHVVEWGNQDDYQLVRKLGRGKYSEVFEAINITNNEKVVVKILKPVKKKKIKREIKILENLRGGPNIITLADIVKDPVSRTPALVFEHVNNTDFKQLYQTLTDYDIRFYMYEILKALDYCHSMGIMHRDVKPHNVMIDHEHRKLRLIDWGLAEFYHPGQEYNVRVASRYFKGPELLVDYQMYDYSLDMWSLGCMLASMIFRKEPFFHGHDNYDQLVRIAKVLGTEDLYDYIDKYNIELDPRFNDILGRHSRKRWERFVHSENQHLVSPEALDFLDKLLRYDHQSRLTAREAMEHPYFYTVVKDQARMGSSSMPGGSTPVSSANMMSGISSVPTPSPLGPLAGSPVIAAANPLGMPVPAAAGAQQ
Sequence of KIT (human) (P10721 whole entry, looked up): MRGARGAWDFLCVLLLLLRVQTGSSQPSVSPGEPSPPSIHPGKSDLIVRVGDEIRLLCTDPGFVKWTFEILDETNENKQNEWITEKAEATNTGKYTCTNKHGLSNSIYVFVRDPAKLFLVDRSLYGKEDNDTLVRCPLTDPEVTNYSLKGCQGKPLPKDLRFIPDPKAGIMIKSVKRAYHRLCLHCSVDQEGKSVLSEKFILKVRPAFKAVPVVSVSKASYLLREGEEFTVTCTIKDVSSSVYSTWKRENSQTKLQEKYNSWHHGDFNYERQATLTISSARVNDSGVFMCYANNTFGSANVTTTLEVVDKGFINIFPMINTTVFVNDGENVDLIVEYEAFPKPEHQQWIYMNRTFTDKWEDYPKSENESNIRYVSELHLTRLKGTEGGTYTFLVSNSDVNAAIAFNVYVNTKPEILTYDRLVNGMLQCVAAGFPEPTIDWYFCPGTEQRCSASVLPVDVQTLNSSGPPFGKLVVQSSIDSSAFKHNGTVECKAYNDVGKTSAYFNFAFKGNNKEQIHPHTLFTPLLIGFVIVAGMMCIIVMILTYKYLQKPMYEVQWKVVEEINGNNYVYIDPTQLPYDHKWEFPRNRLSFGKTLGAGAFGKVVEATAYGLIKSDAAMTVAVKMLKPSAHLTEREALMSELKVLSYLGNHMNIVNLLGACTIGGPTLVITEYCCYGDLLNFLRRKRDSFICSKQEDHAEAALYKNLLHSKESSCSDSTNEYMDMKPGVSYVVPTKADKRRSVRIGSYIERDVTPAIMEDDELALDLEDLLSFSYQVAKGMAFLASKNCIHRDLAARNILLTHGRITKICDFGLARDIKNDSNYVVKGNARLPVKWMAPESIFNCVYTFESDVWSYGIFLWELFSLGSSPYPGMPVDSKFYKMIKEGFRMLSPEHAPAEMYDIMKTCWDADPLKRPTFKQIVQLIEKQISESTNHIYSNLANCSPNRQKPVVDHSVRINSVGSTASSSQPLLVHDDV
Sequence of KIT (human), P10721 [V559D/V654A] (P10721 whole entry V559D/V654A, looked up): as the sequence (P10721 whole entry, looked up) above, with V559D, V654A counted along it
Sequence of KIT (human), P10721 [V559D] (P10721 whole entry V559D, looked up): as the sequence (P10721 whole entry, looked up) above, with V559D counted along it

Structure (SMILES): O=C1NC(=O)/C(=C/c2c[nH]c(=O)c(-c3ccc(N4CCNCC4)nc3)c2)S1
- kinase still bound, per cent of control (ACVR1 (human)): 20%
- kinase still bound, per cent of control (ACVR2A (human)): 76%
- kinase still bound, per cent of control (AURKB (human)): 71%
- kinase still bound, per cent of control (BMP2K (human)): 2%
- kinase still bound, per cent of control (BMPR1B (human)): 4.8%
- kinase still bound, per cent of control (CDK7 (human)): 5.6%
- kinase still bound, per cent of control (CIT (human)): 37%
- kinase still bound, per cent of control (CLK4 (human)): 15%
- Kd (CSNK2A1 (human)): 31 nM
- kinase still bound, per cent of control (CSNK2A1 (human); compound 10.0 µM): 0.65%
- Kd (CSNK2A2 (human)): 6.1 nM
- kinase still bound, per cent of control (CSNK2A2 (human); compound 10.0 µM): 0%
- Kd (DAPK1 (human)): 9.5 nM
- kinase still bound, per cent of control (DAPK1 (human); compound 10.0 µM): 0.35%
- kinase still bound, per cent of control (DCLK3 (human)): 2%
- kinase still bound, per cent of control [1]: 2.6%
- kinase still bound, per cent of control (FLT3 (human)): 91%
- kinase still bound, per cent of control (GAK (human)): 3.2%
- kinase still bound, per cent of control (KIT (human)): 82%
- kinase still bound, per cent of control [2]: 99%
- kinase still bound, per cent of control [3]: 70%
- kinase still bound, per cent of control (MAP2K3 (human)): 65%
- kinase still bound, per cent of control (MAP4K2 (human)): 32%
- Kd (MAPK15 (human)): 390 nM
- kinase still bound, per cent of control (MAPK15 (human); compound 10.0 µM): 0.5%
- kinase still bound, per cent of control (MAPK8 (human)): 60%
- kinase still bound, per cent of control (MELK (human)): 24%
- kinase still bound, per cent of control (MKNK1 (human)): 80%
- kinase still bound, per cent of control (MKNK2 (human)): 93%
- kinase still bound, per cent of control (MYLK3 (human)): 2.6%
- kinase still bound, per cent of control (NEK2 (human)): 13%
- kinase still bound, per cent of control (PHKG2 (human)): 6.6%
- Kd (PIM1 (human)): 37 nM
- kinase still bound, per cent of control (PIM1 (human); compound 10.0 µM): 0.95%
- kinase still bound, per cent of control (PIM2 (human)): 1.1%
- kinase still bound, per cent of control (RIOK2 (human)): 66%
- kinase still bound, per cent of control (RIOK3 (human)): 3.4%
- kinase still bound, per cent of control (RPS6KA4 KD2 (human)): 3.2%
- kinase still bound, per cent of control (SRPK2 (human)): 10%
- kinase still bound, per cent of control (SRPK3 (human)): 6%
- kinase still bound, per cent of control (STK11 (human)): 17%
- kinase still bound, per cent of control (STK24 (human)): 71%
- kinase still bound, per cent of control (TAOK3 (human)): 8.6%
- kinase still bound, per cent of control (TGFBR2 (human)): 18%
- kinase still bound, per cent of control (TLK1 (human)): 66%
- kinase still bound, per cent of control (TNIK (human)): 11%
- kinase still bound, per cent of control (TTK (human)): 59%
